Measurements published in US20090048117A1, “MODULATION OF IMMUNE SYSTEM FUNCTION BY MODULATION OF POLYPEPTIDE ARGININE METHYLTRANSFERASES” (President and Fellows of Harvard College, priority 2003, published 2009).

Legend:
NFAT4 = assay: Nuclear translocation of NFAT4 by immunofluorescence in HepG2 cells; format: cell-based; parameters: key: Subcellular localization of NFAT4 in the cytoplasm is indicated by a (−); nuclear translocation of NFAT4 is indicated by (^+); details: 1 μM ionomycin
Method: The effect of NIP45 on the nuclear translocation of NFAT4 also was investigated. HepG2 cells were transfected with either NFAT4 or NFAT4 plus NIP45 and stimulated the following day with 1 μM ionomycin for 0, 2, 4, 8 or 15 minutes. For one sample, the cells were stimulated for 15 minutes with ionomycin and then washed with fresh media and allowed to rest for an additional 15 minutes (indicated as “15 min.^+15 min. rest” in Table 1). This analysis is designed to examine the function of NIP45 as a nuclear retention factor. […] All samples were then fixed and analyzed by immunofluorescence for translocation of NFAT4 as described above. Subcellular localization of NFAT4 in the cytoplasm is indicated by a (−) and nuclear translocation of NFAT4 is indicated by (^+).

NFAT reporter element = assay: NFAT consensus site luciferase reporter assay in Jurkat cells; format: cell-based, human; details: PRMT1 with NFATc2
Method: FIGS. 13A-13D depict the regulation of the IFNγ and IL-4 promoters by PRMT1. (A) Jurkat cells were transfected with the 9.2 kb IFNγ luciferase reporter 5 μg) and expression vectors for T-bet (5 μg) and PRMT1 (10 μg). Cells were unstimulated or stimulated with PMA/ionomycin for 6 hrs prior to luciferase assays. (B) Jurkat cells were transfected with the IL-4 luciferase reporter (2.5 μg) and expression vectors for NFATc2 (2.5 μg), c-Maf (2.5 μg), and PRMT1 (10 μg). Cells were treated as in (A). (C) Jurkat cells were transfected with the IL-4 luciferase reporter (2.5 μg) and expression vectors for JunB (2.5 μg), c-Maf (2.5 μg), and PRMT1 (10 μg). Cells were treated as in (A). (D) Jurkat cells were transfected with an luciferase reporter driven by NFAT consensus sites and expression vectors for NFATc2 (2.5 μg) and PRMT1 (10 μg). Cells were treated as in (A). (Luciferase units were normalized to TK-renilla luciferase activity. Results are representative to at least three independent experiments.)
The IL-4 promoter contains several composite NFAT/AP-1 sites. Whether PRMT1 coactivation is mediated through NFAT or AP-1 factors was investigated as both NFAT and JunB are involved in the regulation of IL-4 promoter activity (Li, B., et al. (1999) EMBO J 18:420-432). […]

IL-4 promoter = assay: IL-4 luciferase reporter assay in Jurkat cells; format: cell-based, human; details: PRMT1 with NFATc2 and c-Maf, PMA/ionomycin stimulation
Method: FIGS. 11A-11C depict the effects of MTA on T helper cytokine production. (A) T helper cells were isolated from the lymph nodes of DO11.10 TCR transgenic mice and grown under Th1 or Th2 conditions for 7 days. Th1 and Th2 cells were treated with PMA/ionomycin for 3 hrs or pretreated with 1 mM MTA for 60 min prior to PMA/ionomycin stimulation. RNA was isolated with analyzed by RNase protection analysis for transcript level of indicated cytokines. L32 and GAPDH included in the multitemplate probe set served as an internal control. (B) Cells were grown as in (A) either pretreated with 1 mM MTA or left untreated and intracellular cytokine analysis was performed after stimulation with PMA/ionomycin for 2 hrs and an additional 2 hrs with […] monensin. (C) MTA inhibits IL-4 promoter activity. Jurkat cells were transfected with IL-4 reporter vector (2.5 μg) and expression vectors for c-Maf (2.5 μg), NFATc2 (2.5 μg), and PRMT1 (10 μg) along with a TK-renilla luciferase vector (5 ng) as an internal control. Transfectants were left unstimulated or pretreated with 1 mM MTA before a 6 hr PMA/ionomycin stimulation. Luciferase values were calculated relative to TK renilla luciferase internal controls and are expressed relative to unstimulated reporter activity. Similar results were obtained in at least three independent experiments. […]

Row | Compound | Nuclear Translocation of NFAT4 (NFAT4; 0 min.) | Nuclear Translocation of NFAT4 (NFAT4; 8 min.) | Nuclear Translocation of NFAT4 (NFAT4; 15 min.) | Nuclear Translocation of NFAT4 (NFAT4; 15 min. + 15 min. rest in fresh media) | augmentation of NFATc2 transactivation of an NFAT reporter element (NFAT reporter element) | IL-4 promoter activity over NFATc2/c-Maf only (IL-4 promoter) [fold]
1 | C[C@H](CCC(=O)O)C[C@H](C)C[C@H](C)C(=O)/C=C(\O)[C@H](C)C[C@H](C)C/C=C/[C@@H](C)[C@@H](O)[C@@H](C)[C@@H](O)C[C@@H]1CC[C@@](C)([C@H]2CC[C@@](C)([C@@H](C)O)O2)O1 [Ionomycin, ionomycin] | − | + | + | − |  | 
2 | PRMT1: type I protein arginine methyltransferase (SEQ ID NO:10), expressed from a transfected expression vector |  |  |  |  | approximately 10 fold | 5
